Assay results: PMC9519552, “Activation of the human insulin receptor by non-insulin-related peptides” (Nature Communications, 2022)
Read-outs that look alike come from different tables or passages of the source. Positions of bridges follow the written chain, without caps; N, C: chain ends. Residues, ends and D or L forms follow the SMILES beside them.

Key:
[1] = molecular target: T1, human holoIR-A over-expressed in HEK293 cells (Homo sapiens, UniProt P06213); assay: Inhibition of hIR phosphorylation by peptides, co-incubated with BHI at its EC50 (ELISA); assay type: cell-based; settings: for hIRA Phosph IC50 Run 1 / hIRA Phosph IC50 Run 2 / hIRA Phosph IC50 Run 3: inhibition of insulin-stimulated phosphorylation; for hIRA Phosph IC50 Run 1: BHI at its EC50, run 1; for hIRA Phosph IC50 Run 2: BHI at its EC50, run 2; for hIRA Phosph IC50 Run 3: BHI at its EC50, run 3; for IC50: read-out: hIRA Phosph IC50 Mean
T1 construct: expressed in transfected cells; host or cells: HEK293, stably transfected
T1 sequence (P06213 28-1370 isoform P06213-2 limits assumed): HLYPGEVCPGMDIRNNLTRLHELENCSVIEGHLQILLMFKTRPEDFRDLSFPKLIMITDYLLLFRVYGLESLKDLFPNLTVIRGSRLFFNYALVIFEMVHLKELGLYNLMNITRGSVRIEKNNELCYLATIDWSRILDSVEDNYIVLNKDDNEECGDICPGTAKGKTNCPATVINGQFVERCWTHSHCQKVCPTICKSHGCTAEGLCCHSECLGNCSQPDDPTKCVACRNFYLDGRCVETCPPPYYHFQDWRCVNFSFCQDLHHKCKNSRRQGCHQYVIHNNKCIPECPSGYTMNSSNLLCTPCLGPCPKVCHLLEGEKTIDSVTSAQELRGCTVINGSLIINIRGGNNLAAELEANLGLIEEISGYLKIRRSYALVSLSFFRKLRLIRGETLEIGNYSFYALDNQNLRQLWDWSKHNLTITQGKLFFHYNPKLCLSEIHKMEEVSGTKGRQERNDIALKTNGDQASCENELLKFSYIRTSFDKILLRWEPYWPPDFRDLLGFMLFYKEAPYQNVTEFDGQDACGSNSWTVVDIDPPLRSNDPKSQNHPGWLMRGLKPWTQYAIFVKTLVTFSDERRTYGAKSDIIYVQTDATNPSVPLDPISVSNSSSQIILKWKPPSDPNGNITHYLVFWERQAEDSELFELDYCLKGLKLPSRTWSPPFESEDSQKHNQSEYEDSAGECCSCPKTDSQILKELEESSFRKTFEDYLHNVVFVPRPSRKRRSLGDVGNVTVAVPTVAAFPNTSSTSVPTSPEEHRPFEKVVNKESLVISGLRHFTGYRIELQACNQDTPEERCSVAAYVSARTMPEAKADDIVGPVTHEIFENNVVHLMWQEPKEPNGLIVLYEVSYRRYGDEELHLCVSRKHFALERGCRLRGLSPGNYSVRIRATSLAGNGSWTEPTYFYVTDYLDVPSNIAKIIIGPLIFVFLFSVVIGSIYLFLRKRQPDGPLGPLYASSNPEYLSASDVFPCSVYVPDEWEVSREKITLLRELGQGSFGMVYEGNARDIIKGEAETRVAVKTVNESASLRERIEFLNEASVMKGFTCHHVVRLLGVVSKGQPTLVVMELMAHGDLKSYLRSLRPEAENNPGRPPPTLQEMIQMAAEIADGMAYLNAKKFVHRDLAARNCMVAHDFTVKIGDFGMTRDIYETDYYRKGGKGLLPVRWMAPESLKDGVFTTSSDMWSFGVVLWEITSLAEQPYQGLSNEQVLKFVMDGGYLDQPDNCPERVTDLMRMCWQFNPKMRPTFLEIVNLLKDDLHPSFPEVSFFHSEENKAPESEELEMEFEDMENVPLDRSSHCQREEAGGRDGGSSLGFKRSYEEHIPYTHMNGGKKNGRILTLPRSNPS
T1 sequence (P06213 763-1382 partner limits assumed): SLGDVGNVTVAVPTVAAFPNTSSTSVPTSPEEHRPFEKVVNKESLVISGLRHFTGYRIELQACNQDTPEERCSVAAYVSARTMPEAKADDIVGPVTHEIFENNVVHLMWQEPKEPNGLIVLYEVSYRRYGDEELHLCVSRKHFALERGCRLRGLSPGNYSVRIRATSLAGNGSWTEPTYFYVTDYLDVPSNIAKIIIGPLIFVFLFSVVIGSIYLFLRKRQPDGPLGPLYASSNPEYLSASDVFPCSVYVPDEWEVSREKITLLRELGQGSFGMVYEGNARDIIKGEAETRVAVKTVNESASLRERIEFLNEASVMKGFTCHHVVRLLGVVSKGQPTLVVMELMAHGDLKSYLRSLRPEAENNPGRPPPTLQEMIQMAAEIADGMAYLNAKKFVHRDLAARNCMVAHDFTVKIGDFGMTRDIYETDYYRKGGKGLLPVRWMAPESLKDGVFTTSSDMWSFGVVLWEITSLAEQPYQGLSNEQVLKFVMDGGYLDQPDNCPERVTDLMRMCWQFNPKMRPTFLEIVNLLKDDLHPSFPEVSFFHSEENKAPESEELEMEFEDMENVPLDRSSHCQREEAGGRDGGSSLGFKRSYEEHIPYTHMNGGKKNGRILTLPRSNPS
Description: Phosphorylation was quantified using an ELISA technique. Ninety-six well, flat-bottom microplates (Greiner Bio-One) were pre-coated with 2 µg mL^−1 anti-C9 monoclonal antibody (Rho 1D4; University of British Columbia)[27] in 20 mM sodium carbonate, pH 9.6, at 4 °C for overnight prior to the assay. On the assay day, plates were washed 3× with 0.1% Tween in 50 mM Tris Buffer Saline, pH 7.5 (TBST), and then blocked for greater than 1 h at room temperature (RT) with 1% BSA (Sigma) in TBST.
Stably transfected HEK293 cells over-expressing human holoIR-A containing a C-terminal C9 epitope tag ([…]), were plated at 6 × 10^4 cells per well serum-starved using 0.1% BSA in DMEM (Gibco) for overnight at standard tissue culture condition. […] After a 15-min incubation in lysis buffer at 4 °C, the lysate was transferred to anti-C9 antibody coated capture plate (Rho 1D4; University of British Columbia)[27]. […] After a 1 h incubation at room temperature, the secondary antibody was removed by washing 3× with TBST. Signal detection occurred with the addition of TMB, an HRP substrate (Pierce). After 5–10 min, the reaction was stopped by adding an equal volume of 2 M H2SO4, and the absorbance readings at 450 nm (A450) were recorded using a Envision plate reader (PerkinElmer). Samples were tested in three independent assay runs on three different days.
Percent specific response (y-axis) was plotted versus the log concentration of compound (x-axis) using Prism Version 9.3.1 (GraphPad Software). Individual measurements are provided as Source Data.

human IR-A (holoIR-A) = molecular target: T2, human IR-A (holoIR-A) (Homo sapiens, UniProt P06213); assay: holoIR-A competitive radioligand binding assay (scintillation proximity assay); settings: for Ki: IM172N22(-) mutant peptide set; for reduction in ki for hIR-A on substitution: relative to control peptide IM172N22 devoid of N-terminal phenylacetylation
T2 construct: expressed in transfected cells; host or cells: HEK293 (ATCC #CRL-1573), stably transfected; membrane preparation
T2 sequence (P06213 28-1370 isoform P06213-2 limits assumed): as the sequence (P06213 28-1370 isoform P06213-2 limits assumed) above
T2 sequence (P06213 763-1382 partner limits assumed): as the sequence (P06213 763-1382 partner limits assumed) above
Description: Cellular membranes were prepared from human embryonic kidney (HEK293; ATCC #CRL-1573) cells stably transfected with cDNA corresponding to human IR-A (holoIR-A) plus a C-terminal C9 tag ([…]) inserted within a pcDNA3.1 plasmid (Invitrogen), with positive clones selected with 800 μg mL^−1 neomycin and confirmed by Western Blot. Frozen cell pellets were thawed in ice-cold homogenization/resuspension buffer (50 mM Tris-HCl, pH 7.5) containing one cOmplete® protease inhibitor tablet with EDTA (Roche Diagnostics) per 50 mL buffer. Cells were homogenized with an overhead motor-driven Teflon-glass homogenizer using 15–20 strokes, followed by centrifugation at 1100 × g for 10 min at 4 °C. The supernatant was saved on ice, pellets were homogenized as before, and centrifuged at 1100 × g for 10 min at 4 °C. Both supernatants were combined and subsequently centrifuged at 35,000 × g for 60 min at 4 °C. The pellet was resuspended in buffer (4 to 5 mL g^−1 of starting cell paste) containing protease inhibitors and quick frozen in liquid nitrogen prior to storage at −80 °C. Protein concentration was determined using a BCA kit (Thermo Scientific) with bovine serum albumin (BSA) as standard.
The assays were performed with a scintillation proximity assay (SPA) method using polyvinyltoluene (PVT) wheat germ agglutinin-coupled SPA beads (Perkin Elmer). Assay buffer containing 50 mM Tris-HCl (pH 7.5), 150 mM NaCl, 0.1% w/v fatty-acid free BSA was used for all compound testing and reagent preparation. Ten-point concentration response curves with three-fold serial dilutions of test samples or controls were prepared in the assay buffer. […] Plates were sealed and shaken for 1 min on a plate shaker. Following a 10-h incubation and bead settling period at room temperature, radioactivity was determined using a MicroBeta Trilux scintillation counter (Perkin Elmer) and expressed as counts per minute (CPM). […] Samples were tested in three independent assay runs on three different days.
All test sample concentration responses were normalized to the control response and calculated as a percent of the maximal response after correcting for nonspecific binding as shown below: %Specific Inhibition=100%−[(CPM−MIN)/(MAX−MIN)×100%]
Percent specific binding (y-axis) was plotted vs log concentration of compound (x-axis) using Prism Version 9.3.1 (GraphPad Software). Individual measurements are provided as Source Data.

[2] = mean of 3 runs, read-out: hIRA Binding Ki Mean
[3] = run 1, read-out: hIRA Binding Ki Run 1
[4] = run 2, read-out: hIRA Binding Ki Run 2
[5] = run 3, read-out: hIRA Binding Ki Run 3

| hIRA Phosph IC50 Run 1 [1] [nM] | hIRA Phosph IC50 Run 2 [1] [nM] | hIRA Phosph IC50 Run 3 [1] [nM] | IC50 [1] [nM] | Ki (human IR-A (holoIR-A); [2]) [nM] | Ki (human IR-A (holoIR-A); [3]) [nM] | Ki (human IR-A (holoIR-A); [4]) [nM] | Ki (human IR-A (holoIR-A); [5]) [nM] | reduction in ki for hIR-A on substitution (human IR-A (holoIR-A)) | binding of the mutant peptide to hIR-A (in words) (human IR-A (holoIR-A); alanine substitution in IM172N22(-)) | SMILES |
| --- | --- | --- | --- | --- | --- | --- | --- | --- | --- | --- |
| 53 | 40 | 53 | 48.5 | 5.4 | 4.72 | 5.70 | 5.77 | lower than 5 fold |  | CC[C@H](C)[C@H](NC(=O)[C@H](CCC(N)=O)NC(=O)[C@H](C)NC(=O)[C@H](Cc1c[nH]c2ccccc12)NC(=O)[C@H](CCC(=O)O)NC(=O)[C@H](CCC(=O)O)NC(=O)[C@H](CCC(=O)O)NC(=O)[C@H](CC(C)C)NC(=O)[C@H](CO)NC(C)=O)C(=O)N[C@@H](CCC(=O)O)C(=O)N[C@H]1CSSC[C@@H](C(=O)N2CCC[C@H]2C(=O)N2CCC[C@H]2C(=O)N[C@@H](C)C(=O)N[C@@H](CCC(=O)O)C(=O)N[C@@H](CO)C(N)=O)NC(=O)[C@H](CCCNC(=N)N)NC(=O)CNC(=O)[C@H](Cc2ccc(O)cc2)NC(=O)[C@H](C(C)C)NC(=O)[C@H](CCC(=O)O)NC1=O [Peptide S20A] (Ac-SLEEEWAQIECEVYGRCPPAES-NH2; disulfide 11-17) |
| 601 | 587 | 624 | 604 | 99.3 | 97.0 | 117 | 83.7 | 10 fold |  | CC[C@H](C)[C@H](NC(=O)[C@H](CCC(N)=O)NC(=O)[C@H](C)NC(=O)[C@H](Cc1c[nH]c2ccccc12)NC(=O)[C@H](CCC(=O)O)NC(=O)[C@H](CCC(=O)O)NC(=O)[C@H](CCC(=O)O)NC(=O)[C@H](CC(C)C)NC(=O)[C@H](CO)NC(C)=O)C(=O)N[C@@H](CCC(=O)O)C(=O)N[C@H]1CSSC[C@@H](C(=O)N2CCC[C@H]2C(=O)N2CCC[C@H]2C(=O)N[C@@H](CO)C(=O)N[C@@H](CCC(=O)O)C(=O)N[C@@H](CO)C(N)=O)NC(=O)[C@H](CCCNC(=N)N)NC(=O)[C@H](C)NC(=O)[C@H](Cc2ccc(O)cc2)NC(=O)[C@H](C(C)C)NC(=O)[C@H](CCC(=O)O)NC1=O [Peptide G15A] (Ac-SLEEEWAQIECEVYARCPPSES-NH2; disulfide 11-17) |
| >10000 | >10000 | >10000 | > 10000 | > 4240 | > 1210 | > 4160 | > 4240 |  | no detectable binding | CC[C@H](C)[C@H](NC(=O)[C@H](CCC(N)=O)NC(=O)[C@H](C)NC(=O)[C@H](C)NC(=O)[C@H](CCC(=O)O)NC(=O)[C@H](CCC(=O)O)NC(=O)[C@H](CCC(=O)O)NC(=O)[C@H](CC(C)C)NC(=O)[C@H](CO)NC(C)=O)C(=O)N[C@@H](CCC(=O)O)C(=O)N[C@H]1CSSC[C@@H](C(=O)N2CCC[C@H]2C(=O)N2CCC[C@H]2C(=O)N[C@@H](CO)C(=O)N[C@@H](CCC(=O)O)C(=O)N[C@@H](CO)C(N)=O)NC(=O)[C@H](CCCNC(=N)N)NC(=O)CNC(=O)[C@H](Cc2ccc(O)cc2)NC(=O)[C@H](C(C)C)NC(=O)[C@H](CCC(=O)O)NC1=O [Peptide W6A] (Ac-SLEEEAAQIECEVYGRCPPSES-NH2; disulfide 11-17) |
| 158 | 143 | 123 | 141 | 23.1 | 20.6 | 21.2 | 27.3 | lower than 5 fold |  | CC[C@H](C)[C@H](NC(=O)[C@H](CCC(N)=O)NC(=O)[C@H](C)NC(=O)[C@H](Cc1c[nH]c2ccccc12)NC(=O)[C@H](CCC(=O)O)NC(=O)[C@H](CCC(=O)O)NC(=O)[C@H](CCC(=O)O)NC(=O)[C@H](CC(C)C)NC(=O)[C@H](CO)NC(C)=O)C(=O)N[C@@H](CCC(=O)O)C(=O)N[C@H]1CSSC[C@@H](C(=O)N[C@@H](C)C(=O)N2CCC[C@H]2C(=O)N[C@@H](CO)C(=O)N[C@@H](CCC(=O)O)C(=O)N[C@@H](CO)C(N)=O)NC(=O)[C@H](CCCNC(=N)N)NC(=O)CNC(=O)[C@H](Cc2ccc(O)cc2)NC(=O)[C@H](C(C)C)NC(=O)[C@H](CCC(=O)O)NC1=O [Peptide P18A] (Ac-SLEEEWAQIECEVYGRCAPSES-NH2; disulfide 11-17) |
| 28 | 27 | 29 | 28.1 | 8.9 | 8.75 | 8.05 | 9.91 |  |  | CC[C@H](C)[C@H](NC(=O)[C@H](CCC(N)=O)NC(=O)[C@H](C)NC(=O)[C@H](Cc1c[nH]c2ccccc12)NC(=O)[C@H](CCC(=O)O)NC(=O)[C@H](CCC(=O)O)NC(=O)[C@H](CCC(=O)O)NC(=O)[C@H](CC(C)C)NC(=O)[C@H](CO)NC(C)=O)C(=O)N[C@@H](CCC(=O)O)C(=O)N[C@H]1CSSC[C@@H](C(=O)N2CCC[C@H]2C(=O)N2CCC[C@H]2C(=O)N[C@@H](CO)C(=O)N[C@@H](CCCNC(=N)N)C(=O)N[C@@H](CO)C(N)=O)NC(=O)[C@H](CCCNC(=N)N)NC(=O)CNC(=O)[C@H](Cc2ccc(O)cc2)NC(=O)[C@H](C(C)C)NC(=O)[C@H](CCC(=O)O)NC1=O [Peptide E21R] (Ac-SLEEEWAQIECEVYGRCPPSRS-NH2; disulfide 11-17) |
| 4745 | 4291 | 4550 | 4530 | 952 | 952 | 835 | 1068 |  |  | CC(=O)N[C@@H](CO)C(=O)N[C@@H](CC(C)C)C(=O)N[C@@H](CCC(=O)O)C(=O)N[C@@H](CCC(=O)O)C(=O)N[C@@H](CCC(=O)O)C(=O)N[C@@H](Cc1c[nH]c2ccccc12)C(=O)N[C@@H](C)C(=O)N[C@@H](CCC(N)=O)C(=O)N[C@@H](C)C(=O)N[C@@H](CCC(=O)O)C(=O)N[C@H]1CSSC[C@@H](C(=O)N2CCC[C@H]2C(=O)N2CCC[C@H]2C(=O)N[C@@H](CO)C(=O)N[C@@H](CCC(=O)O)C(=O)N[C@@H](CO)C(N)=O)NC(=O)[C@H](CCCNC(=N)N)NC(=O)CNC(=O)[C@H](Cc2ccc(O)cc2)NC(=O)[C@H](C(C)C)NC(=O)[C@H](CCC(=O)O)NC1=O [Peptide I9A] (Ac-SLEEEWAQAECEVYGRCPPSES-NH2; disulfide 11-17) |
